Experimental data taken from ChEMBL document CHEMBL3352528, “Ejection of structural zinc leads to inhibition of γ-butyrobetaine hydroxylase” (Bioorg Med Chem Lett, 2014).
The source made the active and inactive calls. The rule behind the calls is not given here.

molecular target: T1, Gamma-butyrobetaine dioxygenase (Homo sapiens) (UniProt O75936); experiment: Binding affinity to human BBOX assessed as quenching of intrinsic tryptophan fluorescence at 50 to 200 uM in absence of Fe(II)
T1 sequence (whole entry): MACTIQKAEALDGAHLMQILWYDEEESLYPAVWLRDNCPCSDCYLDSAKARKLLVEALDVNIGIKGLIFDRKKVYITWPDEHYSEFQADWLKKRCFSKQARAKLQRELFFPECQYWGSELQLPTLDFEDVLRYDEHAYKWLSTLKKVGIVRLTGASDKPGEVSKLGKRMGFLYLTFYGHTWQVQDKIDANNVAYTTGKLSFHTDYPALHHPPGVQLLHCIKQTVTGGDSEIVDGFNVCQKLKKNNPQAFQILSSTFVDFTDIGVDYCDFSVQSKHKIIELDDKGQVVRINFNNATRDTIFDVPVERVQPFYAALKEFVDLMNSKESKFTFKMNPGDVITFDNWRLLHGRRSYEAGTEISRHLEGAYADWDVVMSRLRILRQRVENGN

For `O[Se]c1ccccc1`, the Activity was “Active”.
In the case of `O=[Se](O)c1ccccc1`, the Activity is reported as “Active”.
For `O=C(O)CNC(=O)c1nc(Cl)c2ccccc2c1O`, the Activity was “inactive”.
`Cl[Se]c1ccccc1` was tested, and the Activity was “Active”.
In the case of `Br[Se]c1ccccc1`, the Activity is reported as “Active”.
`CN(C)C(=S)SSC(=S)N(C)C` [THIRAM] was tested, and the Activity was “Active”.
`O=c1c2ccccc2[se]n1-c1ccccc1` [EBSELEN] was tested, and the Activity was “Active”.
With `c1ccc([Se][Se]c2ccccc2)cc1` the Activity was “Active”.

molecular target: T2, Gamma-butyrobetaine dioxygenase (Homo sapiens, UniProt O75936); experiment: Inhibition of human BBOX pre-incubated for 1 min using TBS-protected fluorescein probe and Fe (II) (Fe(NH4)2(SO4)2 salt by fluoride release assay
T2 sequence (O75936 whole entry): T1 sequence (whole entry)

Point of comparison: `O=[Se](O)c1ccccc1`, IC50 35 µM. Against it:
- O[Se]c1ccccc1 — 1.5-fold higher, 54 µM
- O=C(O)CNC(=O)c1nc(Cl)c2ccccc2c1O — within 1.5-fold, 36 µM
- Cl[Se]c1ccccc1 — 6.9-fold lower, 5.1 µM
- Br[Se]c1ccccc1 — 4.9-fold lower, 7.1 µM
- CN(C)C(=S)SSC(=S)N(C)C [THIRAM] — 1.6-fold higher, 56 µM
- O=c1c2ccccc2[se]n1-c1ccccc1 [EBSELEN] — 51-fold lower, 0.69 µM
- c1ccc([Se][Se]c2ccccc2)cc1 — 1.6-fold higher, 55 µM

molecular target: T2, Gamma-butyrobetaine dioxygenase; experiment: Inhibition of human BBOX pre-incubated for 15 mins using TBS-protected fluorescein probe and Fe (II) (Fe(NH4)2(SO4)2 salt by fluoride release assay

Point of comparison: `c1ccc([Se][Se]c2ccccc2)cc1`, IC50 49 µM. Against it:
- O[Se]c1ccccc1 — 1.9-fold lower, 26 µM
- O=[Se](O)c1ccccc1 — 7.8-fold lower, 6.3 µM
- Cl[Se]c1ccccc1 — 15-fold lower, 3.2 µM
- Br[Se]c1ccccc1 — 14-fold lower, 3.4 µM
- CN(C)C(=S)SSC(=S)N(C)C [THIRAM] — 3.5-fold lower, 14 µM
- O=c1c2ccccc2[se]n1-c1ccccc1 [EBSELEN] — 64-fold lower, 0.76 µM

molecular target: T2, Gamma-butyrobetaine dioxygenase; experiment: Binding affinity to human BBOX in presence of Fe(II) by tryptophan fluorescence quenching binding assay

Point of comparison: `Cl[Se]c1ccccc1`, Kd 7.5 µM. Against it:
- O[Se]c1ccccc1 — higher, > 200 µM
- O=[Se](O)c1ccccc1 — 1.6-fold higher, 12 µM
- O=C(O)CNC(=O)c1nc(Cl)c2ccccc2c1O — 1.7-fold higher, 13 µM
- Br[Se]c1ccccc1 — within 1.5-fold, 11 µM
- CN(C)C(=S)SSC(=S)N(C)C [THIRAM] — 4.7-fold higher, 35 µM
- O=c1c2ccccc2[se]n1-c1ccccc1 [EBSELEN] — 1.6-fold lower, 4.6 µM
- c1ccc([Se][Se]c2ccccc2)cc1 — higher, > 200 µM

molecular target: T1, Gamma-butyrobetaine dioxygenase (Homo sapiens); experiment: Induction of Zn(II) from human BBOX assessed as zinc release by fluorescence based assay

With `O=C(O)CNC(=O)c1nc(Cl)c2ccccc2c1O` the Activity was “inactive”.

molecular target: T2, Gamma-butyrobetaine dioxygenase; experiment: Inhibition of human BBOX pre-incubated for 10 mins using TBS-protected fluorescein probe and Fe (II) (Fe(NH4)2(SO4)2 salt by fluoride release assay

Point of comparison: `CN(C)C(=S)SSC(=S)N(C)C` [THIRAM], IC50 34 µM. Against it:
- O[Se]c1ccccc1 — within 1.5-fold, 35 µM
- O=[Se](O)c1ccccc1 — 3.1-fold lower, 11 µM
- O=C(O)CNC(=O)c1nc(Cl)c2ccccc2c1O — within 1.5-fold, 33 µM
- Cl[Se]c1ccccc1 — 8.5-fold lower, 4 µM
- Br[Se]c1ccccc1 — 10-fold lower, 3.4 µM
- O=c1c2ccccc2[se]n1-c1ccccc1 [EBSELEN] — 48-fold lower, 0.71 µM
- c1ccc([Se][Se]c2ccccc2)cc1 — within 1.5-fold, 47 µM

molecular target: T2, Gamma-butyrobetaine dioxygenase; experiment: Inhibition of human BBOX pre-incubated for 25 mins using TBS-protected fluorescein probe and Fe (II) (Fe(NH4)2(SO4)2 salt by fluoride release assay

Point of comparison: `Br[Se]c1ccccc1`, IC50 2.3 µM. Against it:
- O[Se]c1ccccc1 — 7.4-fold higher, 17 µM
- O=[Se](O)c1ccccc1 — within 1.5-fold, 2.6 µM
- Cl[Se]c1ccccc1 — within 1.5-fold, 2.2 µM
- CN(C)C(=S)SSC(=S)N(C)C [THIRAM] — 2.5-fold higher, 5.8 µM
- O=c1c2ccccc2[se]n1-c1ccccc1 [EBSELEN] — 3.2-fold lower, 0.72 µM
- c1ccc([Se][Se]c2ccccc2)cc1 — 17-fold higher, 39 µM

molecular target: T2, Gamma-butyrobetaine dioxygenase; experiment: Inhibition of human BBOX pre-incubated for 20 mins using TBS-protected fluorescein probe and Fe (II) (Fe(NH4)2(SO4)2 salt by fluoride release assay

Point of comparison: `Cl[Se]c1ccccc1`, IC50 2.9 µM. Against it:
- O[Se]c1ccccc1 — 6.6-fold higher, 19 µM
- O=[Se](O)c1ccccc1 — 1.6-fold higher, 4.7 µM
- O=C(O)CNC(=O)c1nc(Cl)c2ccccc2c1O — 11-fold higher, 32 µM
- Br[Se]c1ccccc1 — within 1.5-fold, 3 µM
- CN(C)C(=S)SSC(=S)N(C)C [THIRAM] — 2.7-fold higher, 7.9 µM
- O=c1c2ccccc2[se]n1-c1ccccc1 [EBSELEN] — 3.5-fold lower, 0.83 µM
- c1ccc([Se][Se]c2ccccc2)cc1 — 14-fold higher, 42 µM

molecular target: T2, Gamma-butyrobetaine dioxygenase; experiment: Binding affinity to human BBOX by tryptophan fluorescence quenching binding assay

Point of comparison: `O=C(O)CNC(=O)c1nc(Cl)c2ccccc2c1O`, Kd 122 µM. Against it:
- O[Se]c1ccccc1 — higher, > 200 µM
- O=[Se](O)c1ccccc1 — 16-fold lower, 7.6 µM
- Cl[Se]c1ccccc1 — 13-fold lower, 9.4 µM
- Br[Se]c1ccccc1 — 9.4-fold lower, 13 µM
- CN(C)C(=S)SSC(=S)N(C)C [THIRAM] — 2.1-fold lower, 59 µM
- O=c1c2ccccc2[se]n1-c1ccccc1 [EBSELEN] — 34-fold lower, 3.6 µM
- c1ccc([Se][Se]c2ccccc2)cc1 — higher, > 200 µM
